# Measurements reported in publication PMC4105520, “Effects of a novel cyclic RGD peptidomimetic on cell proliferation, migration and angiogenic activity in human endothelial cells” (Vascular Cell, 2014).
# Experiments:
# [1] = in the same or very close concentration range as the anti-angiogenic activity; cited from earlier work
# Procedure: In our experiments, the effects of cyclo[DKP-RGD] 1 on HUVEC activity were tested in resting conditions as well as in the presence of a culture medium enriched with growth factors known to promote angiogenesis such as VEGF, EGF, IGF-I and FGF2 or after addition of the pro-inflammatory chemokine IL-8, which has a key role in the regulation of pathological angiogenesis. According to our results, cyclo[DKP-RGD]
# ovarian carcinoma SKOV3 = conditions: cited from earlier work
# [2] = test system: β5 integrin subunit mRNA in HUVEC; assay: Real time PCR, mRNA of integrin subunit β5; assay type: cell-based, human; conditions: 1 μM, 5 h, mean ± SD of 3 experiments; for β5 mRNA, 2^-Δct ×10^2: GAPDH housekeeping
# Procedure: (§1) Cells were treated for 5 h in the presence or absence of 1 μM cyclo[DKP-RGD] 1 in different growth conditions, as previously described. At the end of the treatment, RNA extraction was performed using the Qiazol lysis reagent. Primers were designed by using the “Primer3 input” software (http://frodo.wi.mit.edu/cgi-bin/primer3/primer3.cgi/primer3_www.cgi) and the specificity of each primer was controlled by the BLAST software (http://blast.ncbi.nlm.nih.gov) (Table 1). Real time PCR was performed as previously reported At the end of the reaction, a melting curve analysis was carried out to check for the presence of primer-dimers. Comparison of the expression of each gene was determined by using GAPDH as housekeeping gene. Each run was analyzed in duplicate and data are finally expressed as 2^-Δct.
# HUVEC [3] = assay: Cell viability by flow cytometry, annexin V/PI staining; conditions: 24 h, mean ± SD, n = 4, P > 0.05 vs control
# [4] = test system: human pancreatic carcinoma MIA-PaCa2; conditions: cited from earlier work
# αvβ3 integrin = conditions: read-out: IC50, inhibition of vitronectin binding to αvβ3 integrin; cited from earlier work
# Text: (§2) HUVEC represent a valid in vitro model which provides seminal insights into the cellular and molecular events leading to neovascularization in response to inflammation and hypoxia in cancer, ischemic events, and in embryogenesis. As anticipated in the introduction, integrins are key actors in angiogenesis and vascular homeostasis, acting as promoters of endothelial cell-matrix interactions. It has been recognized that pharmacological inhibition of the αvβ3 subtype suppresses angiogenesis in many experimental models and αvβ3 antagonists (i.e. antibodies, peptides and peptidomimeti ...
# αvβ5 integrin = conditions: read-out: IC50, inhibition of vitronectin binding to αvβ5 integrin; cited from earlier work
# Text: as §2
# human osteosarcoma U2-OS = conditions: cited from earlier work
# [5] = test system: ovarian carcinoma IGROV-1; conditions: cited from earlier work
# [6] = test system: Akt phosphorylation in HUVEC; assay: Western blot analysis of Akt phosphorylation; assay type: cell-based, human; conditions: 5 h
# Procedure: Cells grown in 60-mm dishes were treated for 5 h with 1 μM cyclo[DKP-RGD] 1. The cells were then rinsed twice in ice-cold PBS and 200 μl of the cell lysis buffer (composition: 50 mM Tris–HCl pH 7.4, 1% v/v NP40, 0.25% w/v sodium deoxycholate, 1 mM phenylmethylsulphonyl-fluoride, 1 mM Na3VO4, 1 mM EDTA, 30 mM sodium pyrophosphate, 1 mM NaF, 1 mg/ml leupeptin, 1 mg/ml pepstatin A, 1 mg/ml aprotinin and 1 mg/ml microcystin) was added to the dishes. After scraping, cells were sonicated for 10 s, centrifuged at 12000 g for 5 min at 4°C and the amount of proteins in the supernatant was measured using the BCA protein assay. For western blot analysis, 20 μg of proteins were separated by 10% SDS–PAGE at 150 V for 2 h and blotted onto […] nitrocellulose membranes at 90 mA for 16 h. The membranes were first blocked for 2 h in TRIS buffered saline solution (TBST, composition: TRIS 10 mM, NaCl 150 mM, 0.1% Tween 20) plus 5% low fat dry milk (TBSTM) and then incubated with the appropriate antibody diluted 1:1000 in TBSTM, for 16 h at 4°C under gentle agitation. The membranes were rinsed three times in TBST and then incubated for 2 h at 21°C with the secondary antibody diluted 1:10000 in TBSTM. Membranes were then rinsed three times in TBST and luminescence was detected by using the appropriate kit, and densitometric analysis was performed as previously reported.
# [7] = test system: human pancreatic carcinoma PANC-1; conditions: cited from earlier work
# HUVEC [8] = assay: Cell migration, Boyden chamber assay; assay type: cell-based, human; conditions: for effect on spontaneous migration / effect on stimulated migration: 5 h at 37°C; for effect on stimulated migration: VEGF, EGF, IGF-I and FGF2 in bottom chamber
# Procedure: Cell migration was measured by means of a Boyden chamber assay. Briefly, 1×10^5 HUVEC were seeded in the top well of the Boyden chamber, cyclo[DKP-RGD] 1 was added in the bottom or in the top compartment, and a 3 μm-pore cellulose nitrate filter was placed between the two compartments. Stimulated migration was assessed by putting VEGF, EGF, IGF-I, and FGF2 in the bottom chamber. After an incubation period of 5 h at 37°C, the filter was recovered, dehydrated, fixed, and finally stained with hematoxylin. Migration into the filter was quantified by measuring the distance (in μm) from the surface of the filter to the leading front of cells using an optical microscope (Axiolab, Carl Zeiss S.p.A. Milan, Italy).
# [9] = test system: β3 integrin subunit mRNA in HUVEC; assay: Real time PCR, mRNA of integrin subunit β3; assay type: cell-based, human; conditions: 1 μM, 5 h, mean ± SD of 3 experiments; for β3 mRNA, 2^-Δct ×10^2: GAPDH housekeeping
# Procedure: as §1
# HUVEC [10] = assay: Proliferation assay, ELISA of BrdU incorporation; assay type: cell-based, human; conditions: 24 h, data not shown
# Procedure: To assess HUVEC proliferation, 1×10^4 cells were seeded in duplicate in a 96-well plate and cultured for 24 h without or with cyclo[DKP-RGD] 1 at different concentrations. Proliferation was then measured by a colorimetric immunoassay, based on the ELISA measurement of bromodeoxyuridine (BrdU) incorporation during DNA synthesis. The absorbance (ABS) of the samples was determined by means of a spectrophotometer (Model 680, Bio-Rad Laboratories, Hercules, CA, USA) with wavelength set at 450 nm, and finally expressed as the difference between BrdU positive and negative samples, expressed as Optical Density (O.D.).
# [11] = test system: αv integrin subunit mRNA in HUVEC; assay: Real time PCR, mRNA of integrin subunit αv; assay type: cell-based, human; conditions: 1 μM, 5 h, mean ± SD of 3 experiments; for αv mRNA, 2^-Δct ×10^2: GAPDH housekeeping
# Procedure: as §1
# HUVEC [12] = assay: Angiogenesis assay, network formation on Matrigel; assay type: cell-based, human; conditions: 5 h
# Procedure: To assess angiogenic activity, HUVEC 2.5×10^4 cells were seeded in a 24-well plate coated with 100 μl/well of Matrigel previously polymerized for 1 h at 37°C. […] 1 under either resting or stimulated conditions. In some experiments IL-8 (10 nM) was used as pro-angiogenic stimulus. Network formation was evaluated by phase‒contrast microscopy using a fluorescence microscope (Axiovert 40CFL, Carl Zeiss S.p.A. Milan, Italy). Network formation was finally quantified in terms of mean number of loops per field as topological parameters and the total length of the branches. For the purpose of the analysis, loops were defined as any complete ring formed by HUVEC, while open ramifications were considered as branches. The total branch length (pixels) and the number of loops were quantified using the ImageJ image analysis software (http://rsbweb.nih.gov/ij/).
# HUVEC [13] = test system: HUVEC
substance,measurement,setting,value
cyclo-[Arg-Gly-Asp-D-Phe-N(Me)-Val] (head to tail) [cilengitide],cytotoxic activity,[1],exhibit cytotoxic activity
cyclo[DKP-RGD] [cyclo[DKP-RGD] 1],cytotoxic effects,ovarian carcinoma SKOV3,lack of cytotoxic effects
same,"β5 mRNA, 2^-Δct ×10^2",[2]; basal conditions,1.52 ± 1.34
same,"β5 mRNA, Ratio vs Control",[2]; basal conditions,1.08 ± 0.07
same,"β5 mRNA, 2^-Δct ×10^2","[2]; with VEGF, EGF, IGF, and FGF",1.31 ± 1.13
same,"β5 mRNA, Ratio vs Control","[2]; with VEGF, EGF, IGF, and FGF",1.34 ± 0.46
same,viable cells (ANX-/PI-),"HUVEC [3]; basal conditions, 1×10^−6 M",85.4 ± 3.4%
same,viable cells (ANX-/PI-),"HUVEC [3]; with VEGF, EGF, IGF-I and FGF2, 1×10^−6 M",86.8 ± 9.2%
same,cytotoxic effects,[4],lack of cytotoxic effects
same,IC50,αvβ3 integrin,4.5 ± 1.1 nM
same,IC50,αvβ5 integrin,149 ± 25 nM
same,cytotoxic effects,human osteosarcoma U2-OS,lack of cytotoxic effects
same,cytotoxic effects,[5],lack of cytotoxic effects
same,"phosphorylated Akt, % of control","[6]; basal conditions, 1×10^−6 M, n = 3, P = 0.001",53.2 ± 7.9 % of control
same,phosphorylated Akt,"[6]; basal conditions, 1×10^−6 M, n = 3, P = 0.001, control 16241.7 ± 1763.3",8702.7 ± 2008.7 optical density arbitrary units
same,phosphorylated Akt,"[6]; with VEGF, EGF, IGF-I, and FGF2, 1×10^−6 M, n = 3, P = 0.735, control 15406.0 ± 1218.8",15174.7 ± 663.9 optical density arbitrary units
same,cytotoxic effects,[7],lack of cytotoxic effects
same,concentration of the peak of the bell-shaped effect on migration,"HUVEC [8]; Boyden chamber, not observed in the angiogenesis assay",about 1×10^−9 M
same,effect on spontaneous migration,HUVEC [8]; compound in bottom chamber,increased
same,effect on stimulated migration,HUVEC [8]; compound in bottom chamber,increased
same,effect on spontaneous migration,HUVEC [8]; compound in top chamber together with cells,increased
same,effect on stimulated migration,HUVEC [8]; compound in top chamber,decreased
same,"β3 mRNA, 2^-Δct ×10^2",[9]; basal conditions,0.91 ± 0.76
same,"β3 mRNA, Ratio vs Control",[9]; basal conditions,1.08 ± 0.27
same,"β3 mRNA, 2^-Δct ×10^2","[9]; with VEGF, EGF, IGF, and FGF",1.41 ± 1.07
same,"β3 mRNA, Ratio vs Control","[9]; with VEGF, EGF, IGF, and FGF",1.43 ± 0.35
same,effect on basal proliferation (BrdU incorporation),"HUVEC [10]; basal conditions, up to 1×10^−5 M",did not significantly affect
same,effect on stimulated proliferation (BrdU incorporation),"HUVEC [10]; with VEGF, EGF, IGF-I and FGF2, up to 1×10^−5 M",did not significantly affect
same,"αv mRNA, 2^-Δct ×10^2",[11]; basal conditions,6.59 ± 5.24
same,"αv mRNA, Ratio vs Control",[11]; basal conditions,1.32 ± 0.57
same,"αv mRNA, 2^-Δct ×10^2","[11]; with VEGF, EGF, IGF, and FGF",15.09 ± 10.66
same,"αv mRNA, Ratio vs Control","[11]; with VEGF, EGF, IGF, and FGF",1.28 ± 0.42
same,effect on angiogenesis induced by IL-8,"HUVEC [12]; IL-8 10 nM, P < 0.01 vs control",significantly and profoundly decreased
same,"effect on angiogenesis (network formation: loops, branch length)",HUVEC [12]; basal conditions,did not significantly affect
same,"effect on angiogenesis induced by VEGF, EGF, IGF-I, and FGF2","HUVEC [12]; stimulated conditions, P < 0.01 vs control",significantly and profoundly decreased
same,"effect on percentage of viable, early apoptotic, late apoptotic/necrotic or necrotic cells",HUVEC [13],did not affect
